In patent publication US12409184B2, “Iloprost compositions and formulations thereof” (BTG INTERNATIONAL INC., priority 2020, dated 2025):

How the values were obtained:
[1] = Example 1 PK sub-study, plasma iloprost by LC-MS; assay type: in vivo, human; conditions: for CLss, Mean (SD): n 1
Procedure: Eligible subjects were given the option to participate in a PK sub-study. Subjects who participated in the sub-study provided plasma samples for PK analysis. The samples were analyzed for iloprost concentrations using validated liquid chromatography mass spectrometry methods.
The following PK parameters were calculated whenever possible, based on the plasma concentrations of iloprost: • Steady state plasma concentration just before infusion was stopped • Area under the plasma concentration versus time curve (AUC) from time of dosing to the last time point with measurable concentration (AUC0-last) • AUC from time 0 extrapolated to infinity (AUC0-inf) • Percentage of AUC obtained by extrapolation (AUCextrape %) • Terminal elimination constant (λz) • Plasma terminal elimination half-life (t½) • Plasma clearance (CL), calculated as dose/AUC0-inf • Volume of distribution (V), calculated as dose/(λz×AUC0-inf) Safety

[2] = tested on: subjects with symptomatic Raynaud's Phenomenon (RP) secondary to Systemic Sclerosis (SSc); test: Example 1 double-blind placebo-controlled study, ePRO diary efficacy on symptomatic RP attacks; assay type: in vivo, human; conditions: for Weekly Frequency of Symptomatic RP Attacks, Treatment comparison of change vs placebo, LS mean difference in change: ANCOVA, N = 17 per group, p 0.8498
Source text: This was a multicenter, double-blind, randomized, placebo-controlled study to provide an initial evaluation of the effect of iloprost on the symptomatic relief of RP attacks in subjects with SSc. As a pilot study, it was not powered to provide a definitive estimate of the effect of iloprost. Importantly, this study tested the feasibility of collecting the study endpoints and logistics of study operations that included, among other things, an electronic patient-reported outcomes (ePRO) diary for the evaluation of subject response to the treatment, as well as the infusion workflow for this multiday treatment. Subjects were allowed to continue receiving stable standard of care therapies for the management of symptomatic RP (e.g., calcium channel blockers, angiotensin-converting enzyme inhibitors, statins, fluoxetine, and low-dose acetylsalicylic acid) or may have participated without the use of background standard of care therapies.
The primary objective was to evaluate the efficacy of iloprost compared to placebo on the change in the weekly frequency of symptomatic Raynaud's Phenomenon (RP) attacks from baseline in subjects with symptomatic RP secondary to Systemic Sclerosis (SSc). The exploratory objectives were the following: • To evaluate the efficacy of iloprost compared to placebo on the severity of RP attack symptoms • To evaluate the efficacy of iloprost compared to placebo on the Raynaud's Condition Score • To evaluate the efficacy of iloprost compared to placebo on hand function as assessed by the Cochin Hand Function Scale (CHFS) • To evaluate the safety and tolerability of iloprost • To evaluate the efficacy of iloprost compared to placebo on symptomatic RP attack duration • To evaluate the efficacy of iloprost compared to placebo on the worst pain associated with symptomatic RP • To evaluate the efficacy of iloprost compared to placebo on the subject assessment of overall improvement in symptomatic RP • To evaluate the pharmacokinetics (PK) of iloprost in subjects with symptomatic RP secondary to SSc
The study consisted of an up to 30-day screening period during which subjects completed a daily ePRO diary to record information regarding all symptomatic RP attacks (e.g., severity of symptoms, duration, and hand function). […] The baseline ePRO diary completion period may have been extended beyond 10 days in order to accommodate the preferred Monday through Friday dosing schedule. The ePRO symptomatic RP attack data from this time period were used for the calculation of the baseline frequency of symptomatic RP attacks.
Subjects were randomized in a 1:1 ratio to iloprost injection for IV use or placebo. Randomization was stratified based on the use of phosphodiesterase inhibitors at screening. Study drug administration began on Day 1, and subjects received study drug for 5 consecutive days (e.g., Monday through Friday) as an IV infusion over 6 hours each day via a peripheral line (NovaCath™ Integrated IV Catheter System) or a peripherally inserted central catheter using an infusion pump.
On Day 1, study drug was initiated at a starting dose of 0.5 ng/kg/min, and dose increases occurred every 30 minutes (+5 minutes) in increments of 0.5 ng/kg/min up to 2.0 ng/kg/min or the individual tolerated dose. If dose-limiting adverse events (e.g., headache, flushing, jaw pain, myalgia, nausea, or vomiting) occurred that could not be tolerated by the subject, or if the subject experienced symptomatic hypotension, then the dose was reduced in a step-wise manner by 0.5 ng/kg/min every 30 minutes (+5 minutes) until a tolerated dose was determined or the infusion was stopped until the symptoms resolved at which point the study drug was reinitiated at a previously tolerated dose. If symptomatic hypotension or a dose-limiting adverse event occurred during administration of iloprost at the starting dose (i.e., 0.5 ng/kg/min), the infusion was reduced to 0.25 ng/kg/min. […]

Compound: CC#CCC(C)[C@H](O)/C=C/[C@@H]1[C@H]2C/C(=C/CCCC(=O)O)C[C@H]2C[C@H]1O (stereo partly drawn) [Iloprost, (5E)-5-[(3aS,4R,5R,6aS)-5-hydroxy-4-[(E,3S)-3-hydroxy-4-methyloct-1-en-6-ynyl]-3,3a,4,5,6,6a-hexahydro-1H-pentalen-2-ylidene]pentanoic acid]
- CLss, Mean (SD) ([1]; Maximum Tolerated Dose Level 1.00 ng/kg/min): 91.22 (NA) L/h
- CLss, Mean (SD) ([1]; Maximum Tolerated Dose Level 1.50 ng/kg/min): 6.01 (NA) L/h
- Css, Geometric mean (geometric CV %) ([1]; Maximum Tolerated Dose Level 1.50 ng/kg/min, n 2): 32.90 (284.8) pg/mL
- CLss, Mean (SD) ([1]; Maximum Tolerated Dose Level 2.00 ng/kg/min): 64.53 (NA) L/h
- Average Overall Severity of Symptomatic RP Attacks, Baseline, Mean ([2]; 11-point NRS (0 to 10), before treatment, N = 17): 5.30
- Average Overall Severity of Symptomatic RP Attacks, Treatment comparison of change vs placebo, LS mean difference in change ([2]; 11-point NRS, p 0.4409): −0.47
- Weekly Frequency of Symptomatic RP Attacks, Treatment comparison of change vs placebo, LS mean difference in change [2]: −0.77
- Weekly Frequency of Symptomatic RP Attacks, Treatment comparison of change vs placebo, LS mean difference in change ([2]; listed as iloprost): not statistically significant
- Exploratory endpoints (overall severity, Raynaud's Condition Score, weekly duration, worst symptoms, PGI-S and PGI-C): differences in the iloprost group compared to placebo ([2]; baseline to double-blind endpoint): not statistically significant
- Weekly Frequency of Symptomatic RP Attacks, Treatment comparison of change vs placebo, LS mean difference in change (treatment effect) ([2]; subgroup Randomization Date After 3 Jun. 2019, p 0.7116): 2.04
